# System: anti-OVA IgG antibody response (chicken ovalbumin (OVA) as model antigen)
# Assay: In vivo experiment 1: adjuvant activity, anti-OVA IgG antibody production (ELISA of mouse sera)
# Design: species or system C75BL6 mice
# Details: toxin-free OVA 20 μg + adjuvant 50 μg, three bi-weekly subcutaneous injections, endpoint sera day 42; compared with OVA alone and OVA + prior art compound 13
# Method: Total IgG values were calculated using chicken ovalbumin (OVA) as a model antigen for four groups of mice treated with the following subcutaneous injections: i) toxin-free OVA antigen (20 μg) in combination with the known QA-based adjuvant 13 (50 μg) (identified as QA+OVA), ii) toxin-free OVA antigen (20 μg) in combination with the new adjuvant 25 (50 μg) (identified as QA(oxime)+OVA), iii) toxin-free OVA (20 μg) alone as no-adjuvant control group (identified as OVA) and iv) PBS only as negative control (identified as PBS).
# Quantification of antibody production. Antibody titers against OVA protein, or against MUC1 and TnMUC1 peptides in the case of the self-adjuvanting vaccine constructs. were measured by an indirect enzyme-linked immunosorbent assay (ELISA). […] Absorbance (OD, 450 nm) was immediately measured using a BioTek® Synergy HT multi-detection microplate reader.
# A straightforward proof-of-principle in vivo experiment was carried out to directly compare the adjuvant activities of prior art compound 13 and the compound of the invention 25 in terms of IgG antibody production, using chicken ovalbumin (OVA) as a model antigen. […] Endpoint sera after three immunizations were probed via ELISA assays by coating 96-well plates with toxin-free OVA (0.5 μg/ml) and total IgG optical density (OD) values (day 42) were calculated (FIG. 4).
structure (smiles),measurement,value
C[C@H]1O[C@@H](OC2C(OC(=O)[C@]34CCC(C)(C)CC3C3=CCC5C6(C)CC[C@H](O)C(C)(C=NO)[C@@H]6CC[C@@]5(C)[C@]3(C)C[C@@H]4O)O[C@H](CO)[C@H](NC(=O)CCCCCCCCCCC(=O)O)C2O)C(O)C(O)[C@H]1O[C@@H]1OC[C@@H](O)C(O)C1O (stereo partly shown) [Compound 25],anti-OVA IgG antibody response (total IgG optical density values),significantly higher

# Reference: US20250092085A1, “SAPONIN-BASED ADJUVANTS AND VACCINES” (ASOCIACIÓN CENTRO DE INVESTIGACIÓN COOPERATIVA EN …, priority 2021, published 2025)
